One series has as its system PDPN in A375 cells. Put plainly: Immunofluorescence binding/co-localization with PDPN, A375. It counts as cell-based. The conditions noted are these: 5 μM, 10 h, 37 ℃. On the procedure: Immunofluorescence analysis was used for antigen localization and quantification. For PDPN immunofluorescence staining, melanoma cells (A375, A875) were seeded in coverslips, cultured for 24 h, and fixed using 4% paraformaldehyde for 15 min at room temperature (RT). The cells were then permeabilized with 0.2% Triton X-100 in PBS for 10 min. Cells were blocked using 1% bovine serum albumin (BSA) in PBS for 30 min at RT, and incubated with the primary antibody overnight at 4 ℃. Afterwards, cells were washed three times with PBS containing 0.01% Triton X-100 for 5 min, and incubated with Alexa Fluor 568–conjugated secondary antibodies at RT for 1 h. Lastly, the nuclei were dyed with 4’,6-diamidino-2-phenylindole (DAPI) for 5 min at RT, and the slides were imaged using a NIKON laser scanning confocal microscope. To further verify the specificity binding ability of CY12-RP2 with PDPN, immunofluorescence was detected for analysis in melanoma cells. Briefly, A375 or A875 cells were incubated with CY12-RP2 at a concentration of 5 μM for 10 h at 37 ℃, and then washed with DMEM to remove the unbound peptide. The anti-PDPN primary antibody was then incubated for 4 h at RT. Further experimental procedures were performed as described above. […]

For another series, the system named is A375 cells. Put plainly: Colony formation, A375. It counts as cell-based.
In another series the test system is A875 cells. Put plainly: Wound healing (migration), A875. It is filed as cell-based. Conditions: wound healing, 0, 5, 25 μM, 24 h or 48 h. On the procedure:
A375 GFP, A875 GFP, A375 PDPN^−/−, and A875 PDPN^+/+ cells were all seeded in 12-well plates at a density of 5 × 10^5 cells/well. When the cells reached 100% confluence the next day, the straight wound was scraped in each cultured well with a 20 µL pipette tip. Then the cells were washed repeatedly with complete DMEM to remove the cellular debris, and the medium was changed to a low serum medium containing 0.05% FBS. The scratch-treated cells were subsequently cultured for an additional indicated time and imaged at 0 h, 12 h, 24 h and 48 h. Quantification of wound closure was accomplished by measuring the distance between the phase contrast images’ anterior edges of the contralateral surfaces using ImageJ software. As for peptide (CY12-RP2) function experiments, images of phase contrast for A375 GFP and A875 GFP cells were captured at 0 h before peptide administration. The cells were then treated with CY12-RP2 (0 μM, 5 μM, 25 μM) for 24 h or 48 h, and then images were acquired again. Handling of the experimental results were carried out as previously described.

A short description of series [1]: Serum hepatic function index, xenograft nude mice (ELISA). It counts as in vivo, BALB/c nude mice. Conditions: vs control, 25 and 100 mg/kg. The protocol:
Tumorigenesis assays were conducted in vivo using BALB/c nude mice and BALB/c mice from Guangdong Medical Laboratory Animal Center. The animal study was reviewed and approved by the Administrative Committee on Animal Research of Shenzhen International Graduate School, Tsinghua University (Ethical Development No. 16, 10 November 2021). Samples with 5 × 10^5 A375 or B16F10-Luc melanoma cells were diluted in 100 μL PBS and injected subcutaneously into 6- to 8-week-old female BALB/c nude mice or BALB/c mice. 5 days later, the mice were treated with CY12-RP2 by tail vein administration at various doses (25 mg/kg and 100 mg/kg) every two days. The tumor volume and body weight were measured every 2 days, with the calculation of the tumor volume under the assumption of an ellipsoidal tumor as: tumor volume = length × width^2/2. Tumors from BALB/c nude mice were collected and photographed on day 21, while tumors from the allograft mouse model were measured using bioluminescence imaging. The blood collected from the eyes of BALB/c nude mice were stored at 4 °C for 24 h and then centrifuged for 15 min under the indicated conditions (4 °C, 3000 rpm). The supernatant was collected and assayed for drug toxicity using kits, including AST, ALT, TG, and γ-GT. […]
Fig. S5: Effects and toxicity of CY12-RP2 in vivo […]
(E) Serum ALT, AST, TG, and γ-GT levels of the orthotopic xenografts model were
measured by ELISA. (F) H&E staining of liver, heart, spleen, lung, and kidney treated

In series [2] the test system is B16F10-Luc lung metastasis. It is filed as in vivo, BALB/c mice. The conditions noted are these: 25 and 100 mg/kg i.v. every two days, 15 days. On the procedure:
For pulmonary metastasis assays, 6- to 8-week-old female BALB/c mice were administered with 5 × 10^5 B16F10-Luc cells via tail vein to establish an experimental pulmonary metastasis model of melanoma. CY12-RP2 was administered to the mice intravenously at high and low doses (25 mg/kg and 100 mg/kg) every two days, and the mice were sacrificed after 15 days of treatment. Pulmonary metastases were evaluated using bioluminescence imaging on the 2nd, 5th, 10th, 15th and 20th day after B16F10-Luc cells injection. Subsequently, the BALB/c mice were sacrificed, and the organs including the heart, liver, spleen, lung, and kidney were collected and imaged for evaluation of micrometastases. The xenografts and organs were kept in a 4% paraformaldehyde solution for subsequent histological assays.

Peptide text beside a SMILES is read from it.

As for `CC(C)C[C@H](NC(=O)[C@H](Cc1ccc(O)cc1)NC(=O)[C@@H](N)[C@@H](C)O)C(=O)N[C@@H](CS)C(=O)N[C@H](C(=O)N[C@@H](C)C(=O)N[C@@H](CS)C(=O)N[C@@H](CC(=O)O)C(=O)N[C@@H](Cc1ccc(O)cc1)C(=O)N[C@H](C(=O)N[C@@H](Cc1c[nH]cn1)C(=O)N[C@@H](Cc1c[nH]cn1)C(=O)O)[C@@H](C)O)[C@@H](C)O` [CY12-RP2] (H-TYLCTACDYTHH-OH; N-terminus and C-terminus assumed), in the series on PDPN in A375 cells, the “fluorescence and co-localization with PDPN” value is “strong fluorescence and co-localization”. For the same compound, the colony formation result with A375 cells is on record as “significantly suppress the colony formation of A375 cells in a dose-dependent manner”. The migration entry with A875 cells is “inhibited migration at the corresponding time both in A375 and A875 cells”. Besides, in series [1], the ALT result is “not significantly changed”, the AST entry is on record as “not significantly changed”, the TG entry is “increased” and the γ-GT entry is reported as “increased”. Also, the pulmonary metastases result in series [2] (bioluminescence, vs control) is recorded as “significantly fewer pulmonary metastases”. Moreover, the “size of nodules and frequency of metastases in the lungs” value in series [2] (ex vivo organ bioluminescence) is recorded as “significant reduction”. Moreover, in series [2] (representative nodule images), the “metastatic nodules in the lung” value is given as “significantly reduced”.
